The results in this text go back to patent US6372776B1, “Crystalline(−)-3R,4R-trans-7-methoxy-2,2-dimethyl-3-phenyl-4-{4-[2-(pyrrolidin-1-yl)ethoxy]phenyl}chromane, hydrogen maleate” (Novo Nordisk A/S, priority 1997, dated 2002).

One series can be described thus: hygroscopicity. It is filed as physicochemical.
A short description of series [1]: stability characteristics.
The nature of the next series: solubility in water. Format: physicochemical.

As to “(−)-3R,4R-trans-7-methoxy-2,2-dimethyl-3-phenyl-4-{4-[2-(pyrrolidin-1-yl)ethoxy]phenyl}chromane, hydrogen maleate [hydrogen maleate salt]”, the hygroscopicity result in the series “hygroscopicity” was “non-hygroscopic”. In series [1], the stability characteristics entry is reported as “good”. The bioavailability result in “bioavailability” was “good”.
Consider `COc1ccc2c(c1)OC(C)(C)C(c1ccccc1)[C@@H]2c1ccc(OCCN2CCCC2)cc1` (single isomer, unassigned; (-)) [free base, (−)-3R,4R-trans-7-methoxy-2,2-dimethyl-3-phenyl-4-{4-[2-(pyrrolidin-1-yl)ethoxy]phenyl}chromane], for which the solubility in water entry in the series “solubility in water” was “very poor”.
